Laboratory results published in paper PMC3919815, “Anti-Tumor Effects of Novel 5-O-Acyl Plumbagins Based on the Inhibition of Mammalian DNA Replicative Polymerase Activity” (PLoS ONE, 2014).
Each block holds one molecule with its values, some of them ahead of it.

What was measured:
Human pol κ = target: T1, Human pol κ (Homo sapiens, UniProt Q9UBT6); test: DNA polymerase activity inhibition; format: biochemical; conditions: 10 µM compound; Fig. 4
T1 construct: A truncated form of pol κ (residues 1–560) with 6× His-tags attached at the C-terminus; 6× His (C); made in house; host or cells: E. coli
T1 sequence (Q9UBT6 1-560): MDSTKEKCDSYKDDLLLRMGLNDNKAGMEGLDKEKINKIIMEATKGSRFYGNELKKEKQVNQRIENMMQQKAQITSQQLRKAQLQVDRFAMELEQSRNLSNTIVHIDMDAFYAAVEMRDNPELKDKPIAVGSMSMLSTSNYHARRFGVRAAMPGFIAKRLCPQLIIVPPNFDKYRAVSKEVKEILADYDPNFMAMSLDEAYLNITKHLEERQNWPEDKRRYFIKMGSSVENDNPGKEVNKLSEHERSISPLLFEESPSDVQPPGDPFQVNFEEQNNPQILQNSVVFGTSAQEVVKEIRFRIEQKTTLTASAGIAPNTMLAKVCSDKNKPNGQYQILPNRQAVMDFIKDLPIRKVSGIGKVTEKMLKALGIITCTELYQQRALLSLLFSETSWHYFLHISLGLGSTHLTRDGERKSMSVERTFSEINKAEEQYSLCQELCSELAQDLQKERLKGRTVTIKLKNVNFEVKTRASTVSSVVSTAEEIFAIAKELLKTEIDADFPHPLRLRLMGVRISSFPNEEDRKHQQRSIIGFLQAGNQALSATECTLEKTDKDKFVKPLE
Description: (§1) Pol α was purified from calf thymus by immunoaffinity column chromatography as described by Tamai et al.. Recombinant rat pol β was purified from Escherichia coli JMpβ5 as described by Date et al.. The human pol γ catalytic gene was cloned into pFastBac. Histidine-tagged enzyme was expressed using the BACTO-BAC HT Baculovirus Expression System according to the manufacturer's instructions (Life Technologies, Frederick, MD, USA) and purified using ProBound resin (Invitrogen Japan, Tokyo Japan). Human pols δ and ε were purified by nuclear fractionation of human peripheral blood cancer cells (Molt-4) using the second subunit of pol δ and ε-conjugated affinity column chromatography, respectively. A truncated form of human pol η (residues 1–511) tagged with His6 at its C-terminal was expressed in E. coli cells and purified as described by Kusumoto et al.. A recombinant mouse pol ι tagged with His6 at its C-terminal was expressed and purified by Ni–NTA column chromatography. A truncated form of pol κ (residues 1–560) with 6× His-tags attached at the C-terminus was overexpressed in E. coli and purified as described by Ohashi et al.. Recombinant human His-pol λ was overexpressed and purified according to a method described by Shimazaki et al.. Recombinant human His-pol μ was overexpressed in E. coli BL21 and purified using Glutathione Sepharose 4B (GE Healthcare Bio-Science Corp., Piscataway, NJ, USA) column chromatography according to the method for pol λ preparation by Shimazaki et al.. Pol α from a higher plant, cauliflower, was purified from the inflorescence structure according to the methods outlined by Sakaguchi et al.. Recombinant rice (Oryza sativa L. cv. Nipponbare) pol λ tagged with His6 at the C-terminus was expressed in E. coli and purified as described by Uchiyama et al.. Calf TdT, Taq pol, T4 pol, T7 RNA polymerase, and T4 polynucleotide kinase were purchased from Takara Bio Inc. (Kyoto, Japan). The Klenow fragment of pol I from E. coli was purchased from Worthington Biochemical Corp. (Freehold, NJ, USA). Bovine pancreas deoxyribonuclease I was obtained from Stratagene Cloning Systems (La Jolla, CA, USA).
(§2) The reaction mixtures for calf pol α, rat pol β, plant pol α, and prokaryotic pols have been described previously, [35]; those for pol γ as well as pols δ and ε were previously described by Umeda et al. and Ogawa et al., respectively. Those for pols η, ι, and κ were the same as for pol α, and those for pols λ and μ were the same as for pol β. For the pol reactions, poly(dA)/oligo(dT)18 (A/T, 2/1) and dTTP were used as the DNA template-primer substrate and nucleotide (dNTP; 2′-deoxynucleoside-5′-triphosphate) substrate, respectively. For the TdT reactions, oligo(dT)18 (3′-OH) and dTTP were used as the DNA primer substrate and nucleotide substrate, respectively.
(§3) The chemically synthesized 5-O-acyl plumbagins (2a–j) were dissolved in distilled dimethyl sulfoxide (DMSO) to various concentrations and sonicated for 30 s. Subsequently, 4 µL aliquots were mixed with 16 µL of each enzyme (0.05 units) in 50 mM Tris-HCl at pH 7.5, containing 1 mM dithiothreitol, 50% glycerol (by vol), and 0.1 mM ethylenediaminetetraacetic acid and held at 0°C for 10 min. These inhibitor-enzyme mixtures in 8 µL volumes were next added to 16 µL of enzyme standard reaction mixture and incubated at 37°C for 60 min, except for Taq pol, which was incubated at 74°C for 60 min. Activity without inhibitor was considered 100%, and the relative activity was determined for each inhibitor concentration. One unit of pol activity was defined as the amount of each enzyme that catalyzed the incorporation of 1 nmol dTTP into synthetic DNA template primers in 60 min, at 37°C, and under standard reaction conditions, [35].

Human pol λ = target: T2, Human pol λ (Homo sapiens, UniProt Q9UGP5); test: DNA polymerase activity inhibition; format: biochemical; conditions: 10 µM compound; Fig. 4
T2 construct: His tag; made in house
T2 sequence (Q9UGP5 1-575): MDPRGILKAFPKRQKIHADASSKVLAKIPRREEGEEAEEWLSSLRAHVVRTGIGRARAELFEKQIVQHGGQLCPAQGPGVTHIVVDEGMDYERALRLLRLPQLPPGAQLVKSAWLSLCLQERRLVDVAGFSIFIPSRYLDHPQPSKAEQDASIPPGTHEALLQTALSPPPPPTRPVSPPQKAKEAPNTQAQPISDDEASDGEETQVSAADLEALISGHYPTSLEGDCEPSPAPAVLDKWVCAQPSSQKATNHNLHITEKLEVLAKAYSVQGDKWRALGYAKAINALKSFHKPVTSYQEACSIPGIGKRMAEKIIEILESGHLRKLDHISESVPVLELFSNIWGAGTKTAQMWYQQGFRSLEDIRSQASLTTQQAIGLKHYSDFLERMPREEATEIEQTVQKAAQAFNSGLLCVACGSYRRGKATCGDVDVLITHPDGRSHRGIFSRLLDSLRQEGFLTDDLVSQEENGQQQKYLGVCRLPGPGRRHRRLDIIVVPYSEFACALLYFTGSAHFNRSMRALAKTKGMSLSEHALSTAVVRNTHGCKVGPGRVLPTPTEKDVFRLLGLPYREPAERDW
Description: as §1, §2, §3

Calf pol α = target: T3, Calf pol α (Bos taurus, UniProt A0AAA9TD94); test: DNA polymerase activity inhibition; format: biochemical; conditions: 10 µM compound; Fig. 4
T3 construct: from tissue; host or cells: calf thymus
Description: as §1, §2, §3

HCT116 (colon cancer) = test: Cancer cell viability, MTT assay; format: cell-based, human; conditions: 48 h, MTT; for suppression of cell proliferation: Fig. 5
Experimental: The following human cancer cell lines were obtained from the American Type Culture Collection (Manassas, VA, USA): lung (A549), prostate (DU145 and PC3), colon (HCT116 and HT-29), cervix (HeLa), hepatocellular liver (HepG2), breast (MCF-7), and pancreatic cancer (PANC-1). These cells were cultured in RPMI 1640 medium supplemented with 10% fetal bovine serum, penicillin (100 units/mL), streptomycin (100 µg/mL), and 1.6 mg/mL NaHCO3 at 37°C in a humid atmosphere of 5% CO2/95% air. For the cell viability assay, cells were seeded at 1×10^3 cells/well in a 96-well microplate with various concentrations of the test compounds, and incubated for 48 h. MTT (3-(4,5-dimethylthiazol-2-yl)-2,5-diphenyl tetrazolium bromide) solution was added to a final concentration 0.6 mg/mL in Milli-Q purified water for 2 h, after which time the medium was discarded and the cells lysed in DMSO. A540 was then measured in a microplate reader (Model 680, Bio-Rad Laboratories, Hercules, CA, USA).

HT-29 solid tumors = test: In vivo anti-tumor assay; parameters: species or system nude mice; conditions: at 40 days; 5 mg/kg subcutaneously in PBS, versus PBS control; n = 6
Description: Male BALB/c nu/nu mice at 5 week of age (18 g) were purchased from Japan SLC, Inc. (Shizuoka, Japan). Mice receiving standard laboratory chow and water ad libitum were acclimatized for 1 week before inoculation with cancer cells. For in vivo experiments, human colon HT-29 cells (1×10^7 cells/mouse) were subcutaneously injected into nude mice. Mice bearing solid tumors that had grown to approximately 100 mm^3 in volume (tumor volume = length×width×height) at 12 days after implantation were used for the assessment of anti-tumor effects. They were divided randomly into five groups (n = 6/group). One of the five groups was a control group injected with 0.1 mL of phosphate buffered saline (PBS) alone, and other groups were injected with vitamin K3 (3), juglone (4), C18:1-acyl juglone (5f), and C18:1-acyl plumbagin (2f) dissolved in PBS at a dose of 5 mg/kg. The above administrations all took place between days 12–39 subsequent to implantation. All mice were injected subcutaneously 14 times at […] with the compound and PBS alone (control). Tumor growth was measured at 1-day intervals for 40 days after implantation. At the end of the in vivo anti-tumor assay, some mice treated with the test compounds and PBS were independently examined to observe major organs such as lung, heart, spleen, stomach, liver, pancreas, kidney, intestine, and brain.

[1] = Stability under basic conditions (Triton B, UV-vis); format: physicochemical; conditions: 1 equivalent Triton B in 1,4-dioxane and MeOH, 1.1×10^−3 M, 25°C
Experimental: A 2.2×10^−2 M solution of Triton B in MeOH was added to a 2.2×10^−2 M solution of each sample in 1,4-dioxane. Then, the mixture was diluted with 1,4-dioxane to a concentration of 1.1×10^−3 M. Then, the stability of each compound was monitored by UV-vis spectroscopy. UV-vis spectra were measured at 25°C on a UV-vis spectrophotometer (JASCO V-650, Tokyo, Japan). For comparison, UV-vis spectra of 1.1×10^−3 M solution of C18:1-acyl plumbagin (2f), and C18:1-acyl juglone (5f) in 1,4-dioxane and MeOH (19/1, v/v) were measured.

calf thymus dsDNA = test: Thermal transition of dsDNA; format: binding; conditions: 15 µM compound (positive control); 6 µg/mL DNA, 0.1 M Na-phosphate buffer pH 7.0
Experimental: Thermal transition profiles of dsDNA to single-stranded DNA with or without test compound were obtained with a spectrophotometer (UV-2500; Shimadzu Corp., Kyoto, Japan) equipped with a thermoelectric cell holder according to previous methods. Calf thymus DNA (6 µg/mL) was dissolved in 0.1 M sodium phosphate buffer (pH 7.0) containing 1% DMSO. The solution temperature was equilibrated to 75°C for 10 min, and then increased by 1°C at 2-min intervals for each measurement point. Any change in the absorbance (260 nm) of the compound itself at each temperature point was automatically subtracted from that of DNA plus the compound in the spectrophotometer.

pol α = tested on: pol α; parameters: method as in PMID 10942777; conditions: cited from earlier work
pol δ = tested on: pol δ; parameters: method as in PMID 10942777; conditions: cited from earlier work
pol ε = tested on: pol ε; parameters: method as in PMID 10942777; conditions: cited from earlier work

T3 sequence (A0AAA9TD94 1-1441): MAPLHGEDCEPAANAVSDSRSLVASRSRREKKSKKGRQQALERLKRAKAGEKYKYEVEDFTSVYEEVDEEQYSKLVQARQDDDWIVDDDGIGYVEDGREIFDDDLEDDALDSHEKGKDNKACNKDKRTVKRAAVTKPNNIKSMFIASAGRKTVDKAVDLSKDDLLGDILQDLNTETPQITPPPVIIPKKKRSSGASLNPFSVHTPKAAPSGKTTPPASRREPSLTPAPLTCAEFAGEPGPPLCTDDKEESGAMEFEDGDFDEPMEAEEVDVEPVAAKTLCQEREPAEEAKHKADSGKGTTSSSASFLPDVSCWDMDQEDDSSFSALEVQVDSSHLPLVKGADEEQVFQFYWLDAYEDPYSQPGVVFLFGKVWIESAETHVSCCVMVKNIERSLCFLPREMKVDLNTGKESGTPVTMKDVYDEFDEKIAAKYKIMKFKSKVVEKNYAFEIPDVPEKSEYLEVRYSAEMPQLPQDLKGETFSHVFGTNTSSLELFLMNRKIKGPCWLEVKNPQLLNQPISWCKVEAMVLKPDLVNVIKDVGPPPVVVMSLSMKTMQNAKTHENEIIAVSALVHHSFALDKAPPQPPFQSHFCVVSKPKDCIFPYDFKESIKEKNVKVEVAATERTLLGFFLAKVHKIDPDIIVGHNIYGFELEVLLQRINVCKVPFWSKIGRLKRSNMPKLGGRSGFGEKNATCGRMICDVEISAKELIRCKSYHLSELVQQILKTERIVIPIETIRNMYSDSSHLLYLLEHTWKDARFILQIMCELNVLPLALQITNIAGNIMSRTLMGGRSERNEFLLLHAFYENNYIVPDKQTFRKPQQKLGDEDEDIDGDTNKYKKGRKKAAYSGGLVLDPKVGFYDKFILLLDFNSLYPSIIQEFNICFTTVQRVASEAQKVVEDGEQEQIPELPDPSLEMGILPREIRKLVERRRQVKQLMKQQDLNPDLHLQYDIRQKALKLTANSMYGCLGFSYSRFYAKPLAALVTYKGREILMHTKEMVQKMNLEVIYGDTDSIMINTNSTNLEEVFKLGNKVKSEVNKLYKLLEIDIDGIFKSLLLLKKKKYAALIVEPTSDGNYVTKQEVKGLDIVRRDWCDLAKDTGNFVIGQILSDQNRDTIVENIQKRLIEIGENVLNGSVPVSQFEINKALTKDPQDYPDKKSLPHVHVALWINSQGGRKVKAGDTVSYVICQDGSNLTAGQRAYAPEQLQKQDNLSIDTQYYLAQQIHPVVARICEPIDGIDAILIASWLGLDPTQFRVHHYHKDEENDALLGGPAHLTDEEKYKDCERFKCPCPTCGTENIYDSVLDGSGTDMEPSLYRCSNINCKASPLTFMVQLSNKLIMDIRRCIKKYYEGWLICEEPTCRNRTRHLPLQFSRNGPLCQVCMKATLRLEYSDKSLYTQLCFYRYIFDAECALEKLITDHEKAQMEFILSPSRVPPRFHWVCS

SMILES: CC(=O)Oc1cccc2c1C(=O)C=C(C)C2=O [2a, 5-O-acetoxy-2-methyl-1,4-naphthoquinone]
inhibition of pol κ relative activity (in words) (Human pol κ): hardly inhibited
inhibition of pol λ relative activity (in words) (Human pol λ): hardly inhibited
melting point: 118 to 124 °C

melting point: 67 to 70 °C
SMILES: CCCCCCCCCCCCCCCCCC(=O)Oc1cccc2c1C(=O)C=C(C)C2=O [2e, 5-O-octadecanoyloxy-2-methyl-1,4-naphthoquinone]
inhibition of pol α relative activity (in words) (Calf pol α): did not inhibit

SMILES: CCCCC/C=C\C/C=C\CCCCCCCC(=O)Oc1cccc2c1C(=O)C=C(C)C2=O [2g, 5-O-linoleoyloxy-2-methyl-1,4-naphthoquinone]
cell proliferation rate (HCT116 (colon cancer); 10 µM, control = 100%): < 60%

inhibition of pol κ relative activity (in words) (Human pol κ): strongest inhibitor
inhibition of pol λ relative activity (in words) (Human pol λ): strongest inhibitor
SMILES: CC/C=C\C/C=C\C/C=C\C/C=C\C/C=C\C/C=C\CCC(=O)Oc1cccc2c1C(=O)C=C(C)C2=O [2j, 5-O-docosahexaenoyloxy-2-methyl-1,4-naphthoquinone]

SMILES: CCCCCCCC/C=C\CCCCCCCC(=O)Oc1cccc2c1C(=O)C=CC2=O [5f, reference compound]
decreased rates of tumor volume (HT-29 solid tumors): 10.3%
stability under basic conditions (UV spectra) [1]: readily decomposes under basic conditions

SMILES: CC[n+]1c(-c2ccccc2)c2cc(N)ccc2c2ccc(N)cc21 [EtBr, ethidium bromide]
thermal transition (Tm) of dsDNA from 75 to 90°C (calf thymus dsDNA): an obvious thermal transition was observed

SMILES: C[C@@]1(CO)[C@H](O)CC[C@@]2(C)[C@H]1CC[C@H]1C[C@@H]3C[C@@]12CC[C@]3(O)CO [aphidicolin]
IC50 (pol α): 20 µM
IC50 (pol δ): 13 µM
IC50 (pol ε): 16 µM

SMILES: CC1=CC(=O)c2c(O)cccc2C1=O [compound 1, 5-hydroxy-2-methyl-1,4-naphthoquinone, reference compound]
suppression of cell proliferation (HCT116 (colon cancer); 10 µM): did not
suppression of cell proliferation (HCT116 (colon cancer); 100 µM): approximately 50%

SMILES: CC1=CC(=O)c2ccccc2C1=O [compound 3, 2-methyl-1,4-naphthoquinone]
decreased rates of tumor volume (HT-29 solid tumors): 7.0%

SMILES: O=C1C=CC(=O)c2c(O)cccc21 [compound 4, 5-hydroxy-1,4-naphthoquinone]
decreased rates of tumor volume (HT-29 solid tumors): 9.2%
